# Literature values in patent US20120088773A1, “Circadian rhythm modulation” (priority 2010, published 2012).
# Columns and labels:
# [1] = system: dopamine D(2) receptor; conditions: 200 mg oral caffeine compared to oral placebo
# [2] = system: D2 dopamine-mediated rotational behavior; conditions: prior administration, dopamine-depleted rats
# [3] = according to the CDC
structure (smiles),measurement,setting,value
CC(=O)N[C@@H](Cc1ccc(O)cc1)C(=O)O [N-acetyl-L-tyrosine],water solubility,,very water soluble
Cn1c(=O)c2c(ncn2C)n(C)c1=O [caffeine],ventral striatal [(11)C]raclopride binding potential,[1],trend-level increase
same,decrease in midline thalamic binding potential,[1]; p<0.001,12%
same,D2 dopamine-mediated rotational behavior,[2],can sensitize D2 dopamine-mediated rotational behavior
"C=C1CC[C@H](O)C/C1=C/C=C1\CCC[C@]2(C)[C@@H]([C@H](C)CCCC(C)C)CC[C@@H]12 [vitamin D3, cholecalciferol]",half-life,[3],24 to 48 h
